How the values were obtained:
[1] = biological target: COX-1 (UniProt P23219); assay: Assay for COX-1 activity (PGE2 ELISA); conditions: read-out: COX-1 IC50; 10–20 minutes pre-incubation, reaction stopped after ten minutes, pH 8.0
[2] = biological target: T1, COX-2 (UniProt P35354); assay: Fast assay for COX-2 activity (PGE2 ELISA); format: biochemical, human or murine; conditions: fast assay: 10 min pre-incubation at 25° C., reaction stopped after two minutes, pH 7.5
T1 sequence (P35354 1-604): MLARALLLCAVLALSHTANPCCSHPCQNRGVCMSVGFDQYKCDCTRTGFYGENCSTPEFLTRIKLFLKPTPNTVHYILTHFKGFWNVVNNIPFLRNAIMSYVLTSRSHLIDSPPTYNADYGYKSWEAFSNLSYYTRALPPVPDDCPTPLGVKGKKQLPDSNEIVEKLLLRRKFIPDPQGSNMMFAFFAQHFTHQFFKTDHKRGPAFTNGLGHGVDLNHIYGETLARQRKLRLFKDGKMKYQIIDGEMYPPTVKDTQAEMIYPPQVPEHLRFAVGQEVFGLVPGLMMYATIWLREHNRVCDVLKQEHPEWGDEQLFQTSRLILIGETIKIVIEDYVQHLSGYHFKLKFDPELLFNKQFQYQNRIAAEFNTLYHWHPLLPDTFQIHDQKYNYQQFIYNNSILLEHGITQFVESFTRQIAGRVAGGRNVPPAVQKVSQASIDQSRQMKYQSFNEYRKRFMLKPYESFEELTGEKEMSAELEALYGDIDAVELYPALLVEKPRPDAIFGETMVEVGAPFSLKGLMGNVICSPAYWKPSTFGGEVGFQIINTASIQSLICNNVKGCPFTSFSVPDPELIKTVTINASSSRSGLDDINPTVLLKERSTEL

[3] = biological target: T1, COX-2; assay: Assay for COX-2 activity (PGE2 ELISA); conditions: read-out: COX-2 IC50; 10–20 minutes pre-incubation, reaction stopped after ten minutes, pH 8.0

SMILES | IC50 [1] [µM] | IC50 [2] [µM] | IC50 [3] [µM] | melting point [°C]
O=C(O)C1=Cc2cc(Cl)cc(Br)c2OC1C(F)(F)F (centres unmarked) [Example 15, 8-Bromo-6-chloro-2-trifluoromethyl-2H-1-benzopyran-3-carboxylic acid] | 44 | > 0.1 | 134 | 227.8 to 228.9
CC(C)(C)c1cc2c(c(C(C)(C)C)c1)OC(C(F)(F)F)C(C(=O)O)=C2 (centres unmarked) [Example 23, 6,8-bis(1,1-Dimethylethyl)-2-trifluoromethyl-2H-1-benzopyran-3-carboxylic acid] | > 100 | 7 | 24 | 171.6 to 175
O=C(O)C1=Cc2cc(Cl)c(-c3ccccc3)cc2OC1C(F)(F)F (centres unmarked) [Example 30, 6-Chloro-7-phenyl-2-trifluoromethyl-2H-1-benzopyran-3-carboxylic acid] | 3.8 | < 0.1 | 16 | 185.3 to 187.8
O=C(O)C1=Cc2cc(Br)cc(Br)c2OC1C(F)(F)F (centres unmarked) [Example 33, 6,8-Dibromo-2-trifluoromethyl-2H-1-benzopyran-3-carboxylic acid] | 28 | < 0.1 | 8.2 | 225 to 226
CCOC(=O)C1=Cc2cc(N)ccc2OC1C(F)(F)F (centres unmarked) [Example 35, Ethyl 6-amino-2-trifluoromethyl-2H-1-benzopyran-3-carboxylate] | 11 | 2.2 | 1.7 | 111 to 115
Cc1cc(Br)c2c(c1)C=C(C(=O)O)C(C(F)(F)F)O2 (centres unmarked) [Example 44, 8-Bromo-6-methyl-2-trifluoromethyl-2H-1-benzopyran-3-carboxylic acid] | > 100 | 0.3 | 21 | 237 to 238
O=C(O)C1=Cc2c(F)ccc(Br)c2OC1C(F)(F)F (centres unmarked) [Example 45, 8-Bromo-5-fluoro-2-trifluoromethyl-2H-1-benzopyran-3-carboxylic acid] | > 100 | 0.2 | 46 | 221.7 to 223.3
COc1cc(Br)cc2c1OC(C(F)(F)F)C(C(=O)O)=C2 (centres unmarked) [Example 47, 6-Bromo-8-methoxy-2-trifluoromethyl-2H-1-benzopyran-3-carboxylic acid] | > 100 | 1.9 | 1.7 | –
O=C(O)C1=Cc2cc(S(=O)(=O)NCc3ccccc3)ccc2OC1C(F)(F)F (centres unmarked) [Example 49, 6-[[(Phenylmethyl)amino]sulfonyl]-2-trifluoromethyl-2H-1-benzopyran-3-carboxylic acid] | > 100 | 24 | 31 | 223.3 to 224.4
O=C(O)C1=Cc2cc(S(=O)(=O)N3CCOCC3)ccc2OC1C(F)(F)F (centres unmarked) [Example 53, 6-[(4-Morpholino)sulfonyl]-2-trifluoromethyl-2H-1-benzopyran-3-carboxylic acid] | > 100 | 8 | 6 | 215.2 to 219.3
CC(C)CNS(=O)(=O)c1ccc2c(c1)C=C(C(=O)O)C(C(F)(F)F)O2 (centres unmarked) [Example 55, 6-[(2-Methylpropyl)aminosulfonyl]-2-trifluoromethyl-2H-1-benzopyran-3-carboxylic acid] | > 100 | 46 | 53 | 190.6 to 192.4
CS(=O)(=O)c1ccc2c(c1)C=C(C(=O)O)C(C(F)(F)F)O2 (centres unmarked) [Example 56, 6-Methylsulfonyl-2-trifluoromethyl-2H-1-benzopyran-3-carboxylic acid] | > 100 | 12 | 29 | 208.3 to 212.4
O=C(O)C1=Cc2cc(S(=O)(=O)NCc3ccccc3)cc(Cl)c2OC1C(F)(F)F (centres unmarked) [Example 57, 8-Chloro-6-[[(phonylmethyl)amino]sulfonyl]-2-trifluoromethyl-2H-1-benzopyran-3-carboxylic acid] | > 100 | 21 | 21 | –
O=C(O)C1=Cc2cc(Cl)ccc2O[C@@H]1C(F)(F)F [Example 66, (S)-6-Chloro-2-trifluoromethyl-2H-1-benzopyran-3-carboxylic acid] | 16.9 | 82 | < 0.1 | –
O=C(O)C1=Cc2cc(SC(F)(F)F)ccc2OC1C(F)(F)F (centres unmarked) [Example 91, 2-(Trifluoromethyl)-6-[(trifluoromethyl)thio]-2H-1-benzopyran-3-carboxylic acid] | 36 | < 0.1 | 0.2 | –
O=C(O)C1=Cc2cc(C(=O)c3ccccc3)ccc2OC1C(F)(F)F (centres unmarked) [Example 96, 6-Benzoyl-2-(trifluoromethyl)-2H-1-benzopyran-3-carboxylic acid] | – | 0.2 | 0.3 | 269.8 to 270.8
O=C(O)C1=Cc2cc(C(=O)c3ccc(O)cc3)ccc2OC1C(F)(F)F (centres unmarked) [Example 98, 6-(4-Hydroxybenzoyl)-2-(trifluoromethyl)-2H-1-benzopyran-3-carboxylic acid] | 19 | 2 | 1.5 | 234 to 239.5

Results, then the molecule that gave them:

IC50 [1] [µM] | IC50 [2] [µM] | IC50 [3] [µM] | melting point [°C] | SMILES
5 | < 0.1 | < 0.1 | – | CSc1ccc2c(c1)C=C(C(=O)O)C(C(F)(F)F)O2 (centres unmarked) [Example 2, 6-(Methylthio)-2-(trifluoromethyl)-2H-1-benzopyran-3-carboxylic acid]
1 | – | < 0.1 | 181.7 to 182.9 | COc1ccc(Oc2ccc3c(c2)C=C(C(=O)O)C(C(F)(F)F)O3)cc1 (centres unmarked) [Example 7, 6-(4-Methoxyphenoxy)-2-(trifluoromethyl)-2H-1-benzopyran-3-carboxylic acid]
< 0.1 | < 0.1 | < 0.1 | 205 to 207 | COc1ccc(Oc2ccc3c(c2)C=C(C(=O)O)C(C(F)(F)F)O3)cc1Cl (centres unmarked) [Example 9, 6-(3-Chloro-4-methoxyphenoxy)-2-(trifluoromethyl)-2H-1-benzopyran-3-carboxylic acid]
11 | < 0.1 | < 0.1 | 220.7 to 221.7 | O=C(O)C1=Cc2cc(Br)cc(Cl)c2OC1C(F)(F)F (centres unmarked) [Example 42, 6-Bromo-8-chloro-2-trifluoromethyl-2H-1-benzopyran-3-carboxylic acid]
6.4 | < 0.1 | < 0.1 | 162.3 to 164.7 | O=C(O)C1=Cc2cc(C(F)(F)C(F)(F)F)ccc2OC1C(F)(F)F (centres unmarked) [Example 88, 6-(Pentafluoroethyl)-2-(trifluoromethyl)-2H-1-benzopyran-3-carboxylic acid]
25 | 0.2 | 0.1 | 268.3 to 269.4 | O=C(O)C1=Cc2cc(C(=O)c3ccc(Cl)cc3)ccc2OC1C(F)(F)F (centres unmarked) [Example 97, 6-(4-Chlorobenzoyl)-2-(trifluoromethyl)-2H-1-benzopyran-3-carboxylic acid]
23 | 0.2 | < 0.1 | 184.9 to 186.4 | O=C(O)C1=Cc2cc(Oc3ccccc3)ccc2OC1C(F)(F)F (centres unmarked) [Example 99, 6-Phenoxy-2-(trifluoromethyl)-2H-1-benzopyran-3-carboxylic acid]
16 | < 0.1 | < 0.1 | 153.5 to 154.4 | O=C(O)C1=Cc2cc(Oc3ccc(C(F)(F)F)cc3)ccc2OC1C(F)(F)F (centres unmarked) [Example 101, 2-(Trifluoromethyl)-6-[4-(trifluoromethyl)phenoxy)-2H-1-benzopyran-3-carboxylic acid]
8.2 | < 0.1 | < 0.1 | 140.5 to 142.5 | O=C(O)C1=Cc2cc(Oc3ccc(Cl)cc3)ccc2OC1C(F)(F)F (centres unmarked) [Example 104, 6-(4-Chlorophenoxy)-2-(trifluoromethyl)-2H-1-benzopyran-3-carboxylic acid]
5.7 | 0.2 | < 0.1 | 253.5 to 256 | O=C(O)C1=Cc2c(ccc3oc4ccccc4c23)OC1C(F)(F)F (centres unmarked) [Example 106, 3-(Trifluoromethyl)-3H-benzofuro[3,2-f][1]benzopyran-2-carboxylic acid]
10 | < 0.1 | < 0.1 | – | Cc1cc2c(cc1Cl)C=C(C(=O)O)C(C(F)(F)F)S2 (centres unmarked) [Example 152, 6-Chloro-7-methyl-2-(trifluoromethyl)-2H-1-benzothiopyran-3-carboxylic acid]
42.8 | – | < 0.1 | 234.2 to 235.4 | O=C(O)C1=Cc2cc(Cl)c(Oc3ccccn3)cc2OC1C(F)(F)F (centres unmarked) [Example 202, 6-Chloro-7-[2-pyridinyloxy]-2-(trifluoromethyl)-2H-1-benzopyran-3-carboxylic acid]

Reference: US7138411B2, “Substituted benzopyran derivatives for the treatment of inflammation” (G.D. Searle & Co., priority 1997, dated 2006)
